Source: PMC7835349 (Communications Biology, 2021)

Assays:
Aqueous solubility = assay type: physicochemical; conditions: aqueous buffers at physiological pH
tumours = assay: Formulation dependent efficacy of AZD4320 (Fig S2a); assay type: in vivo; conditions: single 5mg/kg IV bolus
Description: Supplementary Figure 2. Formulation dependent efficacy of AZD4320 (a) A single 5mg/kg
IV bolus dose of AZD4320 formulated in 30% hydroxypropyl-β-cyclodextrin (HP-β-CD)
Data in the graphs are represented as mean tumor volume
± SEM (n=5). […]
(1 picture or pasted object on this page, not shown here)

in vivo = conditions: beagle, dog

With `CN(CCO)CCC(CSc1ccccc1)Nc1ccc(S(=O)(=O)NC(=O)c2ccc(N3CCC(C(O)c4ccccc4-c4ccc(Cl)cc4)CC3)cc2)cc1S(=O)(=O)C(F)(F)F` (stereo not shown) [AZD4320] the solubility (Aqueous solubility) was under 1 µg/mL, the “efficacy” value (tumours; formulated in 0.5% Tween 80) was “no efficacy” and the “efficacy” value (tumours; formulated in 30% hydroxypropyl-β-cyclodextrin) was “complete regression of the tumours”. For the same molecule, the MTD at 48 h (in vivo) was under 3 mg/kg.
